In patent publication US20180119171A1, “REPLICATIVE VACCINIA VIRUS VECTOR HIV VACCINE” (priority 2014, published 2018):
pEC50: −log10 of the molar value.

Columns and labels:
[1] = test system: VTT; format: cell-based, vaccinia virus Tiantan strain
[2] = test system: TT-TK; format: cell-based, recombinant vaccinia virus Tiantan strain
[3] = test system: TT-EnvTK; format: cell-based, recombinant vaccinia virus Tiantan strain
[4] = test system: VTT; design: species or system C57BL mice; settings: mouse, in vivo
[5] = test system: TT-TK; design: species or system C57BL mice; settings: mouse, in vivo
[6] = test system: vaccinia virus; settings: reference [10]; cited from earlier work

For Nc1nc(O)c2ncn(COC(CO)CO)c2n1 [GCV, ganciclovir], the “inhibition effect on virus plaque number, VTT” value [1] was “no inhibition effects”, the “inhibition effect on virus plaque number, TT-TK” value [2] was “clear inhibition effects” and the “inhibition effect on virus plaque number, TT-EnvTK” value [3] was “clear inhibition effects”. The “virus titre in mice ovaries, VTT inoculation, GCV injected” value [4] was 1×10^6 PFU, the “virus titre in mice ovaries, TT-TK inoculation, GCV injected” value [5] was “No virus was detected” and the pEC50 [6] was less than 3.52.
